Data as given in US10035800B2 (AbbVie Inc., priority 2013, dated 2018).

How the values were obtained:
[1] = test system: breast cancer cell line MX-1; experiment: MX-1 cell line proliferation assay; type: cell-based; settings: MX-1 cells, 3-day proliferation assay, Cell Titer Glo; read-out: Cellular proliferation: EC50
Procedure, shortened: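 EC50 comes from sigmoidal fits of Cell Titer Glo luminescence relative to DMSO controls, with assay MSR 2.1. Ten-point 3-fold dilutions (top 3 or 1 μM final) were added to MX-1 breast cancer cells after overnight adhesion. Cells were at 5000/well and proliferation ran 3 days.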

BRD4 (BDII_E352-M457) = target: T1, BRD4 (BDII_E352-M457) (Homo sapiens, UniProt O60885); experiment: TR-FRET bromodomain binding assay, second bromodomain of BRD4; settings: TR-FRET assay protocol G (compound 0.92 μM-15 pM); 30 nM probe
T1 construct: protocol; made in house
Procedure, shortened: (§1)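 Ki values derive from IC50s using probe Kd and concentration, with IC50s fitted to normalized TR-FRET ratios (Ex 340/Em 495, 520). Compounds competed against an Alexa647-labelled BET-inhibitor (100 nM BDI, 30 nM BDII) for 8 nM His-tagged bromodomain bound by Eu-anti-His antibody, 1 h, room temperature, pH 6.0.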

BRD4 (BDI_K57-E168) = target: T2, BRD4 (BDI_K57-E168) (Homo sapiens, UniProt O60885); experiment: TR-FRET bromodomain binding assay, first bromodomain of BRD4; settings: TR-FRET assay protocol G (compound 0.92 μM-15 pM); 100 nM probe
T2 construct: BD1: amino acids K57-E168; made in house
Procedure, shortened: as §1

| Structure (SMILES) | EC50 [1] [nM] | Ki (BRD4 (BDII_E352-M457)) [nM] | Ki (BRD4 (BDI_K57-E168)) [nM] |
| --- | --- | --- | --- |
| CCOC(=O)C1c2c[nH]c3c(=O)n(C)cc(c23)-c2cc(CS(C)(=O)=O)ccc2N1c1ccc(F)cc1 [Example 84, (R)-ethyl 4-(4-fluorophenyl)-10-methyl-7-((methylsulfonyl)methyl)-11-oxo-3,4,10,11-tetrahydro-1H-1,4,10-triazadibenzo[cd,f]azulene-3-carboxylate] | 17.7 | 3.86 | 2.24 |
| CCOC(=O)C1c2c[nH]c3c(=O)n(C)cc(c23)-c2cc(CS(C)(=O)=O)ccc2N1c1ccc(F)cc1 [Example 85, (S)-ethyl 4-(4-fluorophenyl)-10-methyl-7-((methylsulfonyl)methyl)-11-oxo-3,4,10,11-tetrahydro-1H-1,4,10-triazadibenzo[cd,f]azulene-3-carboxylate] | 48.9 | 11.1 | 10.8 |
| CCOC(=O)N1Cc2c[nH]c3c(=O)n(C)cc(c23)-c2cc(CS(C)(=O)=O)ccc21 [Example 87, ethyl 10-methyl-7-((methylsulfonyl)methyl)-11-oxo-10,11-dihydro-1H-1,4,10-triazadibenzo[cd,f]azulene-4(3H)-carboxylate] | 4.69 | 2.1 | 2.54 |
| Cn1cc2c3c(c[nH]c3c1=O)CN(C(=O)Oc1ccc3ccccc3c1)c1ccc(CS(C)(=O)=O)cc1-2 [Example 90, naphthalen-2-yl 10-methyl-7-((methylsulfonyl)methyl)-11-oxo-10,11-dihydro-1H-1,4,10-triazadibenzo[cd,f]azulene-4(3H)-carboxylate] | 30.6 | 2.01 | 1.32 |
| Cc1ccc(OC(=O)N2Cc3c[nH]c4c(=O)n(C)cc(c34)-c3cc(CS(C)(=O)=O)ccc32)cc1 [Example 91, p-tolyl 10-methyl-7-((methylsulfonyl)methyl)-11-oxo-10,11-dihydro-1H-1,4,10-triazadibenzo[cd,f]azulene-4(3H)-carboxylate] | 1.81 | 1.15 | 3.27 |
| Cn1cc2c3c(c[nH]c3c1=O)CN(C(=O)Oc1ccccc1)c1ccc(CS(C)(=O)=O)cc1-2 [Example 93, phenyl 10-methyl-7-((methylsulfonyl)methyl)-11-oxo-10,11-dihydro-1H-1,4,10-triazadibenzo[cd,f]azulene-4(3H)-carboxylate] | 2.59 | 1.63 | 2.84 |
| Cn1cc2c3c(c[nH]c3c1=O)CN(C(=O)Oc1ccc(F)cc1)c1ccc(CS(C)(=O)=O)cc1-2 [Example 94, 4-fluorophenyl 10-methyl-7-((methylsulfonyl)methyl)-11-oxo-10,11-dihydro-1H-1,4,10-triazadibenzo[cd,f]azulene-4(3H)-carboxylate] | 6.02 | 3.49 | 6.03 |
| COc1ccccc1OC(=O)N1Cc2c[nH]c3c(=O)n(C)cc(c23)-c2cc(CS(C)(=O)=O)ccc21 [Example 95, 2-methoxyphenyl 10-methyl-7-((methylsulfonyl)methyl)-11-oxo-10,11-dihydro-1H-1,4,10-triazadibenzo[cd,f]azulene-4(3H)-carboxylate] | 14.1 | 2.53 | 2.18 |
| CC#CCOC(=O)N1Cc2c[nH]c3c(=O)n(C)cc(c23)-c2cc(CS(C)(=O)=O)ccc21 [Example 98, but-2-yn-1-yl 10-methyl-7-((methylsulfonyl)methyl)-11-oxo-10,11-dihydro-1H-1,4,10-triazadibenzo[cd,f]azulene-4(3H)-carboxylate] | 4.41 | 3.15 | 2.34 |
| CCC(=O)N1Cc2c[nH]c3c(=O)n(C)cc(c23)-c2cc(CS(C)(=O)=O)ccc21 [Example 105, 10-methyl-7-((methylsulfonyl)methyl)-4-propionyl-3,4-dihydro-1H-1,4,10-triazadibenzo[cd,f]azulen-11(10H)-one] | 16.2 | 2.68 | 5.49 |
| CC(C)CC(=O)N1Cc2c[nH]c3c(=O)n(C)cc(c23)-c2cc(CS(C)(=O)=O)ccc21 [Example 106, 10-methyl-4-(3-methylbutanoyl)-7-((methylsulfonyl)methyl)-3,4-dihydro-1H-1,4,10-triazadibenzo[cd,f]azulen-11(10H)-one] | 19.2 | 1.91 | 5.89 |
| Cn1cc2c3c(c[nH]c3c1=O)CN(C(=O)CC(C)(C)C)c1ccc(CS(C)(=O)=O)cc1-2 [Example 107, 4-(3,3-dimethylbutanoyl)-10-methyl-7-((methylsulfonyl)methyl)-3,4-dihydro-1H-1,4,10-triazadibenzo[cd,f]azulen-11(10H)-one] | 7.04 | 3.79 | 6.42 |
| Cn1cc2c3c(c[nH]c3c1=O)CN(C(=O)Cc1ccccc1)c1ccc(CS(C)(=O)=O)cc1-2 [Example 108, 10-methyl-7-((methylsulfonyl)methyl)-4-(2-phenylacetyl)-3,4-dihydro-1H-1,4,10-triazadibenzo[cd,f]azulen-11(10H)-one] | 165 | 2.11 | 13.9 |
| COC(=O)CCC(=O)N1Cc2c[nH]c3c(=O)n(C)cc(c23)-c2cc(CS(C)(=O)=O)ccc21 [Example 111, methyl 4-(10-methyl-7-((methylsulfonyl)methyl)-11-oxo-10,11-dihydro-1H-1,4,10-triazadibenzo[cd,f]azulen-4(3H)-yl)-4-oxobutanoate] | 84 | 3.31 | 7.7 |
| Cn1cc2c3c(c[nH]c3c1=O)CN(C(=O)C1CC1)c1ccc(CS(C)(=O)=O)cc1-2 [Example 115, 4-(cyclopropanecarbonyl)-10-methyl-7-((methylsulfonyl)methyl)-3,4-dihydro-1H-1,4,10-triazadibenzo[cd,f]azulen-11(10H)-one] | 7.83 | 2.71 | 8.7 |
| Cn1cc2c3c(c[nH]c3c1=O)C(CN1C(=O)c3ccccc3C1=O)N(c1ccc(F)cc1F)c1ccc(CS(C)(=O)=O)cc1-2 (stereo not drawn) [Example 117, 2-((4-(2,4-difluorophenyl)-10-methyl-7-((methylsulfonyl)methyl)-11-oxo-3,4,10,11-tetrahydro-1H-1,4,10-triazadibenzo[cd,f]azulen-3-yl)methyl)isoindoline-1,3-dione] | > 1000 | 1.27 | 72.3 |
| CNC(=O)CCC1c2c[nH]c3c(=O)n(C)cc(c23)-c2cc(CS(C)(=O)=O)ccc2N1c1ccc(F)cc1F (stereo not drawn) [Example 118, 3-(4-(2,4-difluorophenyl)-10-methyl-7-((methylsulfonyl)methyl)-11-oxo-3,4,10,11-tetrahydro-1H-1,4,10-triazadibenzo[cd,f]azulen-3-yl)-N-methylpropanamide] | 174 | 1.38 | 12.6 |
| CN(C)C(=O)CCC1c2c[nH]c3c(=O)n(C)cc(c23)-c2cc(CS(C)(=O)=O)ccc2N1c1ccc(F)cc1F (stereo not drawn) [Example 119, 3-(4-(2,4-difluorophenyl)-10-methyl-7-((methylsulfonyl)methyl)-11-oxo-3,4,10,11-tetrahydro-1H-1,4,10-triazadibenzo[cd,f]azulen-3-yl)-N,N-dimethylpropanamide] | 134 | 0.602 | 11.9 |
